In ChEMBL document CHEMBL4004829, “Synthesis and antiproliferative activity of a series of novel 6-substituted pyrido[3,2-d]pyrimidines as potential nonclassical lipophilic antifolates targeting dihydrofolate reductase” (Eur J Med Chem, 2017):

What was measured:
[1] = test system: HL-60; assay: Antiproliferative activity against human HL60 cells after 48 hrs by MTS assay; assay type: functional, cell-based; details: HL-60, 48 h
[2] = test system: A549; assay: Antiproliferative activity against human A549 cells after 48 hrs by MTS assay; assay type: functional, cell-based; details: A549, 48 h
[3] = test system: NCI-H1299; assay: Antiproliferative activity against human NCI-H1299 cells after 48 hrs by MTS assay; assay type: functional, cell-based; details: NCI-H1299, 48 h
[4] = target: T1, Dihydrofolate reductase (Homo sapiens, UniProt P00374); assay: Inhibition of recombinant human DHFR using dihydrofolate as substrate after 15 mins in presence of NADPH
T1 sequence (P00374 whole entry): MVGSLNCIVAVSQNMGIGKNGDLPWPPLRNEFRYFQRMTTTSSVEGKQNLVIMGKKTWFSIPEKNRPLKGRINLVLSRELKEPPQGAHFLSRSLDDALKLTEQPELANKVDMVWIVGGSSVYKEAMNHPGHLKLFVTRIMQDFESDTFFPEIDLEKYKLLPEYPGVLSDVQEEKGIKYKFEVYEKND

[5] = test system: HeLa; assay: cells; details: Homo sapiens, 48 h
Description: Antiproliferative activity against human HeLa cells after 48 hrs by MTS assay

[6] = test system: HL-60; assay: Cell cycle arrest in human HL60 cells assessed as G1 phase at 0.05 uM after 24 hrs by propidium iodide staining based flow cytometry (reference value: 29.1 +/- 0.5%); assay type: functional
[7] = test system: HL-60; assay: Cell cycle arrest in human HL60 cells assessed as G1 phase at 0.1 uM after 24 hrs by propidium iodide staining based flow cytometry (reference value: 29.1 +/- 0.5%); assay type: functional
[8] = test system: HL-60; assay: Cell cycle arrest in human HL60 cells assessed as G1 phase at 0.2 uM after 24 hrs by propidium iodide staining based flow cytometry (reference value: 29.1 +/- 0.5%); assay type: functional
[9] = test system: HL-60; assay: Cell cycle arrest in human HL60 cells assessed as G1 phase at 0.4 uM after 24 hrs by propidium iodide staining based flow cytometry (reference value: 29.1 +/- 0.5%); assay type: functional
[10] = test system: HL-60; assay: Cell cycle arrest in human HL60 cells assessed as G1 phase at 0.8 uM after 24 hrs by propidium iodide staining based flow cytometry (reference value: 29.1 +/- 0.5%); assay type: functional
[11] = test system: HL-60; assay: Cell cycle arrest in human HL60 cells assessed as S phase at 0.05 uM after 24 hrs by propidium iodide staining based flow cytometry (reference value: 58.7 +/- 0.8%); assay type: functional
[12] = test system: HL-60; assay: Cell cycle arrest in human HL60 cells assessed as S phase at 0.1 uM after 24 hrs by propidium iodide staining based flow cytometry (reference value: 58.7 +/- 0.8%); assay type: functional
[13] = test system: HL-60; assay: Cell cycle arrest in human HL60 cells assessed as S phase at 0.2 uM after 24 hrs by propidium iodide staining based flow cytometry (reference value: 58.7 +/- 0.8%); assay type: functional
[14] = test system: HL-60; assay: Cell cycle arrest in human HL60 cells assessed as S phase at 0.4 uM after 24 hrs by propidium iodide staining based flow cytometry (reference value: 58.7 +/- 0.8%); assay type: functional
[15] = test system: HL-60; assay: Cell cycle arrest in human HL60 cells assessed as S phase at 0.8 uM after 24 hrs by propidium iodide staining based flow cytometry (reference value: 58.7 +/- 0.8%); assay type: functional
[16] = test system: HL-60; assay: Cell cycle arrest in human HL60 cells assessed as G2/M phase at 0.05 uM after 24 hrs by propidium iodide staining based flow cytometry (reference value: 12.2 +/- 1.1%); assay type: functional
[17] = test system: HL-60; assay: Cell cycle arrest in human HL60 cells assessed as G2/M phase at 0.1 uM after 24 hrs by propidium iodide staining based flow cytometry (reference value: 12.2 +/- 1.1%); assay type: functional
[18] = test system: HL-60; assay: Cell cycle arrest in human HL60 cells assessed as G2/M phase at 0.2 uM after 24 hrs by propidium iodide staining based flow cytometry (reference value: 12.2 +/- 1.1%); assay type: functional
[19] = test system: HL-60; assay: Cell cycle arrest in human HL60 cells assessed as G2/M phase at 0.4 uM after 24 hrs by propidium iodide staining based flow cytometry (reference value: 12.2 +/- 1.1%); assay type: functional
[20] = test system: HL-60; assay: Cell cycle arrest in human HL60 cells assessed as G2/M phase at 0.8 uM after 24 hrs by propidium iodide staining based flow cytometry (reference value: 12.2 +/- 1.1%); assay type: functional

Structure (SMILES)	IC50 [1]	IC50 [2]	IC50 [3]	IC50 [4]	IC50 [5]	also measured
COc1cccc(/C=C/c2ccc3nc(N)nc(N)c3n2)c1	2.03 µM	9.1 µM	12.2 µM	4.13 µM	18.8 µM	–
CCc1ccc(CCc2ccc3nc(N)nc(N)c3n2)cc1	0.21 µM	15.4 µM	2.76 µM	2.48 µM	49.4 µM	–
Nc1nc(N)c2nc(CCc3ccc(F)cc3)ccc2n1	0.58 µM	4.98 µM	14.8 µM	0.95 µM	54 µM	–
Nc1nc(N)c2nc(CCc3ccc(Cl)cc3)ccc2n1	0.27 µM	16.3 µM	1.06 µM	2.84 µM	5.3 µM	–
COc1cc(CCc2ccc3nc(N)nc(N)c3n2)cc(OC)c1OC	0.42 µM	11.6 µM	2.17 µM	0.29 µM	2.9 µM	Activity [6]: 26.3%; Activity [7]: 25.7%; Activity [8]: 20.2%; Activity [9]: 18%; Activity [10]: 10%; Activity [11]: 63%; Activity [12]: 64.3%; Activity [13]: 73.2%; Activity [14]: 77.6%; Activity [15]: 88.5%; Activity [16]: 10.7%; Activity [17]: 10%; Activity [18]: 6.6%; Activity [19]: 4.4%; Activity [20]: 1.5%
Nc1nc(N)c2nc(/C=C/c3ccc(Cl)cc3)ccc2n1	3.8 µM	8.17 µM	9.39 µM	16.9 µM	7.6 µM	–
Nc1nc(N)c2nc(CCc3ccc(Br)cc3)ccc2n1	0.12 µM	22.6 µM	1.49 µM	1.26 µM	4.3 µM	–
COc1ccc(/C=C/c2ccc3nc(N)nc(N)c3n2)cc1	1.63 µM	5.68 µM	3.73 µM	4.34 µM	6.5 µM	–
Nc1nc(N)c2nc(CCc3ccccc3)ccc2n1	0.36 µM	9.78 µM	9.16 µM	2.25 µM	8.61 µM	–
Cc1ccc(CCc2ccc3nc(N)nc(N)c3n2)cc1	0.31 µM	34.1 µM	1.61 µM	2.55 µM	52.4 µM	–
CCc1ccc(/C=C/c2ccc3nc(N)nc(N)c3n2)cc1	1.19 µM	9.13 µM	4.86 µM	5.28 µM	9.86 µM	–
CC(C)c1ccc(CCc2ccc3nc(N)nc(N)c3n2)cc1	0.49 µM	15.9 µM	–	19 µM	14 µM	–
O=c1[nH]cc(F)c(=O)[nH]1 [FLUOROURACIL]	1.62 µM	–	8.91 µM	–	62.2 µM	–
Nc1nc(N)c2nc(/C=C/c3ccccc3)ccc2n1	3.85 µM	13.9 µM	15.2 µM	5.33 µM	13.4 µM	–
COc1cccc(CCc2ccc3nc(N)nc(N)c3n2)c1	0.42 µM	14.4 µM	7.03 µM	0.45 µM	14.3 µM	–
Cc1ccc(/C=C/c2ccc3nc(N)nc(N)c3n2)cc1	4.54 µM	18.9 µM	–	3.19 µM	14.5 µM	–
Nc1nc(N)c2nc(/C=C/c3ccc(F)cc3)ccc2n1	2.61 µM	6.78 µM	5.99 µM	4.78 µM	7.98 µM	–
COc1ccccc1/C=C/c1ccc2nc(N)nc(N)c2n1	3.6 µM	7.56 µM	8.63 µM	3.61 µM	13.8 µM	–
Nc1nc(N)c2nc(/C=C/c3ccc(Br)cc3)ccc2n1	2.51 µM	11.9 µM	6.19 µM	14.8 µM	9.2 µM	–
COc1cc(/C=C/c2ccc3nc(N)nc(N)c3n2)cc(OC)c1OC	2.33 µM	5.34 µM	3.99 µM	4 µM	2.1 µM	–
COc1ccccc1CCc1ccc2nc(N)nc(N)c2n1	0.8 µM	29.9 µM	4.73 µM	1.67 µM	10.4 µM	–
CC(C)c1ccc(/C=C/c2ccc3nc(N)nc(N)c3n2)cc1	1.04 µM	10.7 µM	11.2 µM	20.1 µM	10.5 µM	–
COc1ccc(CCc2ccc3nc(N)nc(N)c3n2)cc1	0.072 µM	18 µM	2.15 µM	0.71 µM	10.5 µM	–
